# Results as given in US20260240797A1, “TREATMENT OF ULCERATIVE COLITIS COMPRISING VIDOFLUDIMUS OR A PHARMACEUTICALLY ACCEPTABLE SALT THEREOF” (IMMUNIC AG, priority 2022, published 2026).
# Counter-ions that a name gives are not always drawn.
# Key:
# [1] = system: patients with moderate-to-severe ulcerative colitis; assay: CALDOSE-1 phase 2 trial, maintenance phase efficacy (Week 50); type: in vivo, human; conditions: for Clinical Remission Rate at Week 50 (steroid-free): Modified Full Analysis Set MP; for Number of Patients with Clinical Remission at Week 50 (steroid-free): Modified Full Analysis Set MP (corticosteroids during induction)
# [2] = system: T-lymphocyte proliferation; conditions: in vitro; cited from earlier work
# [3] = system: secretion of IL-17 and IFNγ; conditions: in vitro; cited from earlier work
# human DHODH = human DHODH (Homo sapiens, UniProt Q02127); conditions: cited from earlier work
# [4] = system: patients with moderate-to-severe ulcerative colitis; assay: CALDOSE-1 phase 2 trial, safety and tolerability; type: in vivo, human; conditions: for Incidence of TEAEs of Special Interest: red blood cells urine positive, hematuria or retroperitoneal pain
# [5] = system: patients with moderate-to-severe ulcerative colitis; assay: CALDOSE-1 phase 2 trial (NCT03341962), induction phase efficacy; type: in vivo, human; conditions: for Odds Ratio Estimate to achieve clinical remission versus placebo: active treatment groups of 30/45 mg, multivariate logistical regression
# [6] = in vivo; cited from earlier work
# [7] = system: patients with relapsing remitting MS (rrMS); conditions: cited from earlier work
# [8] = system: patients with active rheumatoid arthritis; conditions: 35 mg once-daily for 13 weeks; cited from earlier work
# patients with UC = conditions: 12 weeks, cited from earlier work
# patients with CD = conditions: 12 weeks, cited from earlier work
# [9] = system: patients with inflammatory bowel disease (IBD); conditions: 35 mg oral once daily, 12 weeks; cited from earlier work
# Sequence of human DHODH (Q02127 whole entry): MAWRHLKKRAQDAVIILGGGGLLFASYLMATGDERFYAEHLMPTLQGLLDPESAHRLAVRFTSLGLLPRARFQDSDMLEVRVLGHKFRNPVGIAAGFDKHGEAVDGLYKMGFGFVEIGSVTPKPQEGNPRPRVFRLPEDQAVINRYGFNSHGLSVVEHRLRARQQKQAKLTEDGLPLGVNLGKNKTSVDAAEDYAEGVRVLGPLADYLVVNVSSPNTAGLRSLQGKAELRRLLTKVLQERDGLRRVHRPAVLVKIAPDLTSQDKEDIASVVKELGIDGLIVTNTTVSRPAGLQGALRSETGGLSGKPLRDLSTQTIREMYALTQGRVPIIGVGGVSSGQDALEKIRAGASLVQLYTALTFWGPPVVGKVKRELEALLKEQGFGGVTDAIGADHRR
compound,measurement,setting,value
"COc1cccc(-c2ccc(NC(=O)C3=C(C(=O)O)CCC3)c(F)c2)c1 [IMU-838, 1-cyclopentene-1-carboxylic acid, 2-(((3-fluoro-3′-methoxy(1,1′-biphenyl)-4-yl)amino)carbonyl)-, calcium salt (2:1)]",Clinical Remission Rate at Week 50 (steroid-free),[1]; 10 mg,38.5%
same,Number of Patients with Clinical Remission at Week 50 (steroid-free),"[1]; 10 mg, N10 = 22",5
same,Mean time to symptomatic UC relapse,"[1]; 10 mg, N = 45",231.7 days
same,Clinical Remission Rate at Week 50,"[1]; 10 mg, n = 26/35",42.3%
same,Number of Patients with Clinical Remission at Week 50,"[1]; 10 mg, n = 26/35 evaluated/total",11
same,Endoscopic Healing Rate at Week 50,"[1]; 10 mg, n = 28/35",53.6%
same,Number of Patients Meeting Endpoint (Endoscopic Healing at Week 50),"[1]; 10 mg, n = 28/35",15
same,delta (Δ) vs placebo in clinical remission at Week 50,"[1]; 30 mg, 95% CI 3.2%-59.3%",33.8%
same,Clinical Remission Rate at Week 50 (steroid-free),[1]; 30 mg,66.7%
same,Number of Patients with Clinical Remission at Week 50 (steroid-free),"[1]; 30 mg, N30 = 22",8
same,Mean time to symptomatic UC relapse,"[1]; 30 mg, N = 40",221.9 days
same,Clinical Remission Rate at Week 50,"[1]; 30 mg, n = 26/29",61.5%
same,Endoscopic Healing Rate at Week 50,"[1]; 30 mg, n = 26/29",73.1%
same,Number of Patients Meeting Endpoint (Endoscopic Healing at Week 50),"[1]; 30 mg, n = 26/29",19
same,Number of Patients with Clinical Remission at Week 50,"[1]; 30 mg, n = 26/29 evaluated/total",16
same,odds ratio (30 mg IMU-838/Placebo) for clinical remission at Week 50,"[1]; 30 mg, two-sided Pearson's chi-square p=0.0358",4.16
same,T-lymphocyte proliferation,[2],inhibited
same,secretion of IL-17 and IFNγ,[3],inhibited
same,potency against human DHODH,human DHODH,submicromolar potency
same,safety and tolerability,"[4]; induction phase, 10, 30, 45 mg/day",safe and well-tolerated
same,Incidence of Liver TEAEs,"[4]; maintenance phase, 10 mg",2.2%
same,Incidence of Renal TEAEs,"[4]; maintenance phase, 10 mg",2.2%
same,Incidence of Serious TEAEs,"[4]; maintenance phase, 10 mg",6.7%
same,Incidence of TEAEs,"[4]; maintenance phase, 10 mg, N10 = 45",35.6%
same,Incidence of TEAEs of Special Interest,"[4]; maintenance phase, 10 mg",0.0%
same,Incidence of Liver TEAEs,"[4]; maintenance phase, 30 mg",0.0
same,Incidence of Renal TEAEs,"[4]; maintenance phase, 30 mg",5%
same,Incidence of Serious TEAEs,"[4]; maintenance phase, 30 mg",5%
same,Incidence of TEAEs,"[4]; maintenance phase, 30 mg, N30 = 40",40%
same,Incidence of TEAEs of Special Interest,"[4]; maintenance phase, 30 mg",5%
same,safety and tolerability,"[4]; maintenance phase, 10 and 30 mg",safe and well tolerated
same,clinical remission at week 10,"[5]; 10 mg/day, overall intent-to-treat patient population",14.9%
same,clinical remission at week 10,"[5]; 30 mg/day, overall intent-to-treat patient population",10.6%
same,clinical remission at week 10,"[5]; 45 mg/day, overall intent-to-treat patient population",13.6%
same,Odds Ratio Estimate to achieve clinical remission versus placebo,[5]; with concomitant steroids,0.58
same,Odds Ratio Estimate to achieve clinical remission versus placebo,[5]; without concomitant steroids,3.53
same,rate of clinical remission at week 10,[5]; patients concomitantly taking corticosteroids during induction treatment,11.5%
same,clinical remission (primary endpoint) at Week 10,"[5]; pooled 30 and 45 mg, Full Analysis Set, n=16 missing data",13.8%
same,patients with clinical remission (primary endpoint) at Week 10,"[5]; pooled 30 and 45 mg, Full Analysis Set, of 116 evaluated",16
same,advantage in clinical remission over placebo,"[5]; pooled treatment groups at week 10, non-steroid patient population",11.4%
same,clinical remission at week 10,"[5]; pooled treatment groups, non-steroid patient population (no concurrent corticosteroids)",14.7%
same,half-life,[6],approximately 30 h
same,safety profile,[7]; 30 mg and 45 mg doses,favorable safety profile
same,suppression of MRI activity,"[7]; 30 mg dose, 24-weeks of treatment",70%
"COc1cccc(-c2ccc(NC(=O)C3=C(C(=O)O)CCC3)c(F)c2)c1 [Vidofludimus, 2-((3-fluoro-3′-methoxy-[1,1′-biphenyl]-4-yl)carbamoyl)cyclopent-1-enecarboxylic acid]","diarrhoea, alopecia, neutropenia or liver enzyme elevations",[8],no notable increases
same,safety profile compared to placebo,[8],overall similar safety profile as compared to placebo
same,number of partial responders,patients with UC; 35 mg oral once daily,5
same,partial responders,patients with UC; 35 mg oral once daily,42%
same,patients in steroid-free remission (complete responders),patients with UC; 35 mg oral once daily,50%
same,number of patients in steroid-free remission (complete responders),"patients with UC; out of 12, 35 mg oral once daily",6
same,number of partial responders,patients with CD; 35 mg oral once daily,4
same,partial responders,patients with CD; 35 mg oral once daily,29%
same,patients in steroid-free remission (complete responders),patients with CD; 35 mg oral once daily,57%
same,number of patients in steroid-free remission (complete responders),"patients with CD; out of 14, 35 mg oral once daily",8
same,tolerability / drug-related serious adverse events,[9],well tolerated and no drug-related serious adverse events were observed
